Experimental data reported in patent US20260124226A1 (priority 2023, published 2026).
Values joined by “and” are separate entries in the source; they are usually repeats but may differ in a detail not shown here. Equal entries are not always repeated. Where two headings read alike, the source gives them in different places.

Legend:
[1] = system: La Crosse virus; assay: microbe, parasite or virus in culture; assay type: cell-based
[2] = system: Lymphocytic choriomeningitis virus; assay: microbe, parasite or virus in culture; assay type: cell-based; settings: Mammarenavirus choriomeningitidis, Vero
[3] = Liver microsome stability; settings: both, human, microsomes, pH 7.4
[4] = system: Tacaribe virus; assay: microbe, parasite or virus in culture; assay type: cell-based
[5] = system: Flu A H5N1 (Low Path); assay: microbe, parasite or virus in culture; assay type: cell-based, influenza A virus
[6] = system: RVFV; assay: microbe, parasite or virus in culture; assay type: cell-based, Rift Valley fever virus
[7] = system: Junin virus; assay: microbe, parasite or virus in culture; assay type: cell-based
[8] = system: Vero cells; settings: African green monkey
[9] = system: Severe fever thrombocytopenia syndrome virus; assay: organism not typed; assay type: cell-based; settings: Vero
[10] = system: Flu A H7N9 (High Path); assay: microbe, parasite or virus in culture; assay type: cell-based, influenza A virus
[11] = system: Marpol virus; assay: organism not typed; assay type: cell-based
[12] = system: Influenza A H1N1; assay: microbe, parasite or virus in culture; assay type: cell-based, influenza A virus
[13] = system: Pichinde virus; assay: microbe, parasite or virus in culture; assay type: cell-based; settings: Vero
[14] = Plasma stability
[15] = system: POWV; assay: microbe, parasite or virus in culture; assay type: cell-based, Powassan virus
[16] = system: WEEV; assay: microbe, parasite or virus in culture; assay type: cell-based, Western equine encephalitis virus
[17] = system: MERS; assay: microbe, parasite or virus in culture; assay type: cell-based, MERS coronavirus; settings: Middle East respiratory syndrome-related coronavirus
[18] = in vitro; settings: Syrian golden hamster
[19] = system: Enterovirus-68; assay: microbe, parasite or virus in culture; assay type: cell-based, EV-D68
[20] = system: Poliovirus; assay: microbe, parasite or virus in culture; assay type: cell-based
[21] = system: Flu B; assay: microbe, parasite or virus in culture; assay type: cell-based, influenza B virus
[22] = system: HRV-14; assay: microbe, parasite or virus in culture; assay type: cell-based, human rhinovirus; settings: Rhinovirus B, HRV14
[23] = system: DENV2; assay: microbe, parasite or virus in culture; assay type: cell-based, Dengue virus 2; settings: Dengue virus
[24] = system: Usutu virus; assay: microbe, parasite or virus in culture; assay type: cell-based; settings: Vero 76
[25] = system: Flu A H5N1 (High Path); assay type: cell-based, influenza A virus
[26] = in vitro; settings: African green monkey
[27] = Plasma stability; remark: listed apart in the source
[28] = in vitro; settings: African green monkey; remark: listed apart in the source
[29] = system: CHIKV; assay: microbe, parasite or virus in culture; assay type: cell-based, Chikungunya virus
[30] = system: EBOV; assay: microbe, parasite or virus in culture; assay type: cell-based, Ebola virus; settings: Zaire ebolavirus, Vero
[31] = system: Parainfluenza virus 3; assay: organism not typed; assay type: cell-based
[32] = system: EEEV; assay: microbe, parasite or virus in culture; assay type: cell-based, Eastern equine encephalitis virus; settings: Eastern equine encephalitis virus
[33] = system: Heartland virus; assay: microbe, parasite or virus in culture; assay type: cell-based; settings: Vero
[34] = Liver microsome stability; settings: male, Sprague-Dawley, rat, microsomes, pH 7.4
[35] = in vitro; settings: human
[36] = in vitro; settings: human; remark: listed apart in the source
[37] = system: ZIKV; assay: microbe, parasite or virus in culture; assay type: cell-based, Zika virus; settings: for EC50: Vero 76 cells
[38] = Liver microsome stability; settings: CD-1, mouse, microsomes
[39] = system: Punta Toro virus; assay: microbe, parasite or virus in culture; assay type: cell-based
[40] = Plasma stability; remark: listed apart in the source
[41] = system: VEEV; assay: microbe, parasite or virus in culture; assay type: cell-based, Venezuelan equine encephalitis virus
[42] = system: Flu A H3N2; assay: microbe, parasite or virus in culture; assay type: cell-based, influenza A virus
[43] = in vitro; settings: dog
[44] = both, human, pH 7.4
[45] = CD-1, mouse
[46] = male, CD-1, mouse
[47] = male, Sprague-Dawley, rat
[48] = both, human
[49] = male, Sprague-Dawley, rat, pH 7.4
[50] = mouse, in vivo, po, 15 mg/kg
[51] = physchem; settings: simulated gi fluid, pH 1.3
[52] = system: ENTV71; assay: microbe, parasite or virus in culture; assay type: cell-based, EV-A71; settings: Enterovirus A, Vero 76
[53] = system: RSV; assay: microbe, parasite or virus in culture; assay type: cell-based; settings: human respiratory syncytial virus, MA104
[54] = system: SARS-CoV-2; assay: microbe, parasite or virus in culture; assay type: cell-based; settings: Severe acute respiratory syndrome coronavirus 2, Vero C1008
[55] = system: MEV; assay: microbe, parasite or virus in culture; assay type: cell-based; settings: Measles morbillivirus, Vero 76
[56] = physchem; settings: simulated gi fluid, pH 5.2
[57] = system: WNV; assay: microbe, parasite or virus in culture; assay type: cell-based; settings: West Nile virus, Vero 76
[58] = female, ICR (CD-1), mouse, in vivo, po
[59] = in vitro; settings: human; remark: listed apart in the source
[60] = system: YFV; assay: microbe, parasite or virus in culture; assay type: cell-based; settings: Yellow fever virus, Huh-7
[61] = Mammarenavirus tacaribeense, Vero
[62] = Western equine encephalitis virus, Vero 76
[63] = Rift Valley fever virus, Huh-7, RVFV strain MP-12, Huh7 cells

SMILES: O=c1ccn([C@@H]2O[C@](F)(COP3(=O)OCc4ccccc4O3)[C@@H](O)[C@H]2O)c(=O)[nH]1 (stereo partly drawn) [EIDD-2838]
- EC50 [1]: 0.69 µM
- EC90 ([1]; La Crosse virus, Vero 76): 0.12 µM
- EC90 [2]: 4.6 µM
- half-life at 1 μM [3]: 7 min
- EC50 [4]: 0.046 µM
- EC90 [4, 61]: 0.046 µM
- EC50 [5]: 0.71 µM
- EC50 ([5]; Influenza A virus, H5N1, MDCK): 0.78 µM
- EC50 [6]: 3.68 µM and 4.14 µM
- EC50 [7]: 0.37 µM
- EC90 ([7]; Mammarenavirus juninense, Vero): 0.023 µM
- CC50 [8]: 213 µM
- EC90 [9]: 7.82 µM
- EC50 [10]: 4.37 µM
- EC50 ([10]; Influenza A virus, H7N9, MDCK): 5.29 µM
- EC50 [11]: 19.1 µM
- EC50 ([11]; Vero): 25.3 µM
- EC50 [12]: 1.2 µM and 1.59 µM and 1.98 µM
- EC50 ([12]; Influenza A virus, H1N1, MDCK): 2.3 µM
- EC90 [13]: 0.55 µM
- half-life at 1 μM ([14]; male, CD-1, mouse, plasma): 1 min
- EC50 [15]: 98.9 µM
- EC50 ([15]; Powassan virus, BHK): 75.9 µM
- EC50 [16]: 5.75 µM and 5.98 µM
- EC50 [16, 62]: 7.82 µM
- EC90 [16, 62]: 24.2 µM
- EC50 ([17]; Vero 76): 1.98 µM
- EC50 ([17]; Vero C1008): 2.53 µM
- CC50 [18]: > 230 µM
- EC50 ([19]; Enterovirus D, RD, Enterovirus-68, RD cells): 7.36 µM
- EC50 ([19]; Enterovirus-68, RD cells): 7.82 µM
- EC50 [20]: 8.74 µM
- EC50 ([20]; Enterovirus C, Vero 76): 7.36 µM
- EC50 [21]: 0.74 µM and 0.67 µM
- EC50 ([21]; Influenza B virus, MDCK): 0.78 µM
- EC50 [22]: > 230 µM
- EC50 ([23]; DENV2, Vero 76): > 230 µM
- EC90 ([23]; DENV2, Vero 76): 29.9 µM
- EC50 [24]: 6.9 µM
- EC90 [24]: 25.8 µM
- EC50 [25]: 11.3 µM
- CC50 [26]: > 230 µM
- half-life at 1 μM ([27]; male, Sprague-Dawley, rat, plasma): < 1 min
- CC50 [28]: > 230 µM
- EC50 ([29]; CHIKV, Vero76 cells): 3.68 µM and 3.91 µM
- EC90 ([29]; Chikungunya virus, Vero 76): 23.9 µM
- EC50 ([29]; Chikungunya virus, Vero 76, CHIKV, Vero76 cells): 2.3 µM
- EC50 [30]: 150 µM
- EC50 [31]: 78.2 µM
- EC50 ([31]; MA104): 73.6 µM
- EC90 ([32]; Vero 76): 28.4 µM
- EC90 [33]: 8.05 µM
- half-life at 1 μM [34]: 8 min
- CC50 [35]: > 230 µM
- CC50 [36]: > 230 µM
- EC50 ([37]; ZIKV): 7.82 µM and 9.2 µM
- EC90 ([37]; Zika virus, Vero 76): 43.7 µM
- EC50 ([37]; Zika virus, Vero 76, ZIKV): 8.28 µM
- half-life at 1 μM [38]: 7 min
- EC50 [39]: 5.75 µM
- EC50 ([39]; Punta Toro virus, Vero 76): 6.21 µM
- half-life at 1 μM ([40]; both, human, plasma): 12 min
- EC50 [41]: 8.51 µM
- EC50 ([41]; Venezuelan equine encephalitis virus, Vero 76): 8.28 µM
- EC50 [42]: 0.87 µM
- EC50 ([42]; Influenza A virus, H3N2, MDCK): 0.97 µM
- CC50 [43]: > 230 µM

SMILES: CC(C)[C@H](N)C(=O)OC[C@@]1(F)O[C@@H](n2ccc(=O)[nH]c2=O)[C@H](O)[C@@H]1O [EIDD-2971, [(1S)-1-[[(2S,3S,4R,5R)-5-(2,4-dioxopyrimidin-1-yl)-2-fluoro-3,4-dihydroxy-tetrahydrofuran-2-yl]methoxycarbonyl]-2-methyl-propyl]ammonium chloride]
- half-life ([44]; microsomes): 38 min
- max [2749] [44]: 0.179 µM
- max [2749] [45]: 0.305 µM
- half-life ([45]; microsomes): 11 min
- max [2749] [46]: 0.267 µM
- half-life ([14]; mouse plasma, drug 1.00 μM): 59 min
- max [2749] [47]: 0.155 µM
- max [2749] [48]: 0.0152 µM
- half-life ([27]; rat plasma, drug 1.00 μM): 50 min
- half-life ([49]; microsomes): 33 min
- max [2749] [49]: 0.203 µM
- half-life ([40]; human plasma, drug 1.00 μM, 37° C.): 81 min

SMILES: CC(C)OC(=O)[C@H](C)N[P@](=O)(OC[C@@]1(F)O[C@@H](n2ccc(=O)[nH]c2=O)[C@H](O)[C@@H]1O)Oc1ccccc1 [EIDD-3232, isopropyl ((S)-(((2S,3S,4R,5R)-5-(2,4-dioxo-3,4-dihydropyrimidin-1(2H)-yl)-2-fluoro-3,4-dihydroxytetrahydrofuran-2-yl)methoxy)(phenoxy)phosphoryl)-L-alaninate]
- Tolerability Summary [50]: Class D
- half-life [51]: 288 min
- EC90 [4, 61]: 3.9 µM
- EC50 ([4]; Mammarenavirus tacaribeense, Vero, Tacaribe virus strain TRVL 11573, Vero cells): 2.8 µM
- EC50 [6, 63]: 6.4 µM
- EC90 [6, 63]: 7.4 µM
- EC90 ([7]; Mammarenavirus juninense, Vero): 2.2 µM
- EC50 ([7]; Mammarenavirus juninense, Vero, Junin virus strain Candid #1, Vero cells): 2 µM
- EC50 ([12]; Influenza A virus, H1N1, MDCK): 1.3 µM
- EC90 ([12]; Influenza A virus, H1N1, MDCK): 1.5 µM
- EC50 [52]: > 32 µM
- EC50 [53]: > 32 µM
- EC50 ([15]; Powassan virus, BHK-21, POWV(Lineage 1) strain LB, BHK-21 cells): > 32 µM
- EC50 [54]: > 17 µM
- EC50 ([17]; Vero 76): > 32 µM
- CC50 [18]: > 32 µM
- EC50 ([19]; Enterovirus D, RD): 18 µM
- EC50 ([20]; Enterovirus C, Vero 76, Poliovirus strain Mahoney, Vero 76 cells): > 32 µM
- EC50 [55]: 9.6 µM
- half-life [56]: > 1440 min
- EC50 [22]: > 32 µM
- EC50 ([23]; DENV2, Huh-7): 4.2 µM
- EC90 ([23]; DENV2, Huh-7): 19 µM
- EC50 [57]: > 32 µM
- EC50 ([29]; Chikungunya virus, Huh-7): 5.7 µM
- EC90 ([29]; Chikungunya virus, Huh-7): 4.5 µM
- Cmax [58]: 2940 ± 826 nM
- EC50 ([31]; MA104): > 32 µM
- CC50 [59]: > 32 µM
- EC50 ([32]; Vero 76, EEEV strain FL39-939, Vero 76 cells): > 32 µM
- EC50 [60]: 15 µM
- CC50 [35]: > 32 µM
- CC50 [36]: > 32 µM
- EC50 ([41]; Venezuelan equine encephalitis virus, Vero 76, VEEV strain TC-83, Vero 76 cells): > 32 µM
- CC50 [43]: > 32 µM
